PMC11714206, “Massively Parallel Screening of Toll/Interleukin‐1 Receptor (TIR)‐Derived Peptides Reveals Multiple Toll‐Like Receptors (TLRs)‐Targeting Immunomodulatory Peptides” (Advanced Science, 2024)

Biological target: T1, MyD88^TIR (Homo sapiens, UniProt Q99836)
T1 construct: MyD88 (residues 148–296); 6xHis; made in house; host or cells: E. coli BL21 (DE3)
Assay: T‐Surf phage library (P8 and P3) selection against MyD88^TIR, four rounds, NGS read counts
Assay type: binding
Settings: for Population: 4th round of selection against MyD88 TIR, share of NGS reads; for P8_MyD88 Rank (after) / P8_MyD88 Rank (before): P8 library; for P3_MyD88 Rank (after) / P3_MyD88 Rank (before): P3 library
Description: T‐Surf libraries were screened against the immobilized TIR domains of two major human TLR adaptor proteins, MAL^TIR and MyD88^TIR, allowing cross‐species selection of TIR‐binding motifs with 190 946 TIR‐derived peptides in a single binding assay (Scheme 1). Enriched phage pools from the fourth round of selection were analyzed using NGS after barcoding the peptide‐coding regions of the phage pools.
Phage display screening was performed by coating two wells of a 96‐well plate (Maxisorp, Thermo Fisher Scientific) with 100 µL of 5 µg mL^−1 TIR domains overnight; then, the coated wells were blocked with 200 µL of blocking buffer (0.2% BSA in PBS) and set aside for 1 h at 4 °C with gentle shaking. Next, 100 µL of the phage library was added to the wells and incubated for 1 h at room temperature (RT; 20 – 22 °C) with gentle shaking. The plate was washed four times with PBS containing 0.5% Tween‐20; the bound phages were eluted by adding 100 µL of 100 mM HCl to each well. The elute was neutralized with 10 µL of 1.0 M Tris‐HCl (pH 11.0). E. coli TG1 cells were grown to the log phase (A600 = ≈0.6), and 1 mL of the culture was incubated with 100 µL of the eluted phages for 30 min at 37 °C, with shaking at 200 rpm. Next, 1 µL of M13KO7 helper phages was added, followed by incubation for 45 min at 37 °C, with shaking. Subsequently, the cells were transferred to 25 mL of 2× yeast extract tryptone/carbenicillin/kanamycin medium and incubated overnight at 37 °C with shaking at 200 rpm. The amplified phages were precipitated with 20% PEG‐8000/2.5 M NaCl to be used for the next round of selection.
The naïve T‐Surf libraries in P8 and P3 and the enriched phage pools after four rounds were barcoded for NGS as previously described.^[ [59] ^] Briefly, 5 µL of the phage pool was used as a template for 20 cycles of a 50 µL PCR reaction using […] each of forward and reverse barcoded primers and PrimeSTAR Max DNA Polymerase. The PCR products were purified using Expin Gel SV (GeneAll). The NGS samples were quantified using qPCR, following the qPCR Quantification Protocol Guide (KAPA Library Quantification kits for Illumina Sequencing Platform), and qualified using the TapeStation High Sensitivity D1000 ScreenTape (Agilent Technologies). The indexed libraries were further sequenced by Macrogen (Seoul, Republic of Korea) using the NovaSeq platform (Illumina) with 100 bp paired‐end reads. The reads were demultiplexed by barcodes and filtered for an average Phred quality score of at least 30, followed by trimming the flanking consensus sequences using Cutadapt (version 2.3). Peptide sequence populations were analyzed according to the read counts.

[1] = P8_MyD88: rank by count after grouping
[2] = P8_MyD88: rank by count before grouping
[3] = P8_MyD88 pool: P8 T-Surf phage library
[4] = 4R selection against MyD88, rank after grouping
[5] = 4R selection against MyD88, rank before grouping
[6] = P3_MyD88: rank by count after grouping
[7] = P3_MyD88: rank by count before grouping
[8] = selection against MyD88 TIR, rank by count after grouping
[9] = selection against MyD88 TIR, rank by count before grouping
[10] = selection against MyD88, rank after grouping
[11] = selection against MyD88, rank before grouping
[12] = selection against MyD88, rank by count after grouping
[13] = selection against MyD88, rank by count before grouping
[14] = P3_MyD88 pool: P3 T-Surf phage library
[15] = P8_MyD88: rank by NGS read count after grouping
[16] = P8_MyD88: rank by NGS read count before grouping

T1 sequence (Q99836 148-296): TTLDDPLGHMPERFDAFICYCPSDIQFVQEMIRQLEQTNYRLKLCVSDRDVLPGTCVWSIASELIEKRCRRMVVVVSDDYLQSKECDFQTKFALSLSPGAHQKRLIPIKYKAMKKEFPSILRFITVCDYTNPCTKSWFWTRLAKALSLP

DSDPGSDLLIKIWAAL
Rank (after) [1]: 166
Rank (before) [2]: 185
Population [3]: 0.00694%

IVQALWSKVHHSLTLF
Rank (after) [1]: 145
Rank (before) [2]: 157
Population [3]: 0.01%

LGYHWIDWENLVGFED
P8_MyD88 Rank (after) [4]: 630
P8_MyD88 Rank (before) [5]: 3283

NQWRNALTAAANLSLS
P3_MyD88 Rank (after) [4]: 675
P3_MyD88 Rank (before) [5]: 3507

SSVRGGRWGLVELGKK
Rank (after) [6]: 455
Rank (before) [7]: 3269

LQNQWKLALTNSGFHTFRDND
P3_MyD88 Rank (after) [4]: 585
P3_MyD88 Rank (before) [5]: 2346

LGYQWIEWEYFVGIED
P8_MyD88 Rank (after) [8]: 250
P8_MyD88 Rank (before) [9]: 1186

SENYATSTWAPDELVR
P3_MyD88 Rank (after) [10]: 496
P3_MyD88 Rank (before) [11]: 2998

QQVVRYRLEIVRVTKL
P3_MyD88 Rank (after) [12]: 738
P3_MyD88 Rank (before) [13]: 2882

FDYELQQSLFHALIMR
P8_MyD88 Rank (after) [8]: 213
P8_MyD88 Rank (before) [9]: 296

DYTSSPWALEELLKIM
Rank (after) [1]: 159
Rank (before) [2]: 171
Population [3]: 0.00809%

SSFREGLWRLLELTKK
Population [14]: 0.0032%

YASYDDNDYYWVTHVLLRHM
Population [3]: 0.00732%

DPQDLVWFYERLVSIV
Rank (after) [15]: 986
Rank (before) [16]: 2713

DPQDLDWFYERQVRLF
Rank (after) [15]: 915
Rank (before) [16]: 2794

EPPGLDWVYERLVVLF
Rank (after) [15]: 927
Rank (before) [16]: 3199

DGGWDYLLPNVEGPAC
P8_MyD88 Rank (after) [12]: 760
P8_MyD88 Rank (before) [13]: 2560

WMRALAYIVNIVGESS
P8_MyD88 Rank (after) [8]: 268
P8_MyD88 Rank (before) [9]: 529

DPQDLDCFYERLVSLL
Rank (after) [1]: 169
Rank (before) [2]: 1082

NYGSNSWALNELLEIL
Population [3]: 0.00848%

YASSSWYLDELLQIA
Rank (after) [1]: 402
Rank (before) [2]: 1870

IDDDHLTYLVRLLYSLHVTE
Rank (after) [15]: 895
Rank (before) [16]: 3629

EWIREQLCLALKERLP
P3_MyD88 Rank (after) [4]: 637
P3_MyD88 Rank (before) [5]: 2133

YITWFDDIQQIQVFWV
Rank (after) [15]: 978
Rank (before) [16]: 2116

SEMRVVEDGSVSPLEM
P3_MyD88 Rank (after) [10]: 495
P3_MyD88 Rank (before) [11]: 3071

YLRRSVFQTMLARRTE
Rank (after) [15]: 899
Rank (before) [16]: 2077

SSFREGLWRLPELLR
Rank (after) [6]: 101
Rank (before) [7]: 402

KLDSARMRKVQRLRET
P3_MyD88 Rank (after) [10]: 576
P3_MyD88 Rank (before) [11]: 3706

NGQSSRFKDDADLVGQ
P3_MyD88 Rank (after) [12]: 678
P3_MyD88 Rank (before) [13]: 3337

DPQDLDWFYERREPA
P8_MyD88 Rank (after) [4]: 662
P8_MyD88 Rank (before) [5]: 2790

YSFTGQLHRYMVQRGV
P3_MyD88 Rank (after) [4]: 649
P3_MyD88 Rank (before) [5]: 1434

VQWDELLQILHARELF
Rank (after) [15]: 965
Rank (before) [16]: 2249

YHPLDLPRGKAIKPEILG
Rank (after) [6]: 189
Rank (before) [7]: 1615

NNFSAFLFEALFENGI
Rank (after) [1]: 181
Rank (before) [2]: 240

LGYRWIVWEYFVGIED
Rank (after) [1]: 400
Rank (before) [2]: 3224

LKCGEPYFWSKLRYAM
Rank (after) [6]: 137
Rank (before) [7]: 2407

DHHLDLPSGKAIKPDILG
Rank (after) [6]: 107
Rank (before) [7]: 2044

SSRWALDELVQILHARELF
Rank (after) [15]: 887
Rank (before) [16]: 3809

PSEVRKQTGSLAKALCD
P3_MyD88 Rank (after) [10]: 488
P3_MyD88 Rank (before) [11]: 2753

DHHLDLPRGKAIKLEILG
Population [14]: 0.00437%

LGYHWIVWEYFVGIDD
Rank (after) [1]: 421
Rank (before) [2]: 3244

IWVWDFYNSQLEGPMG
P8_MyD88 Rank (after) [12]: 753
P8_MyD88 Rank (before) [13]: 3609

HYTDSYFALHELALLL
Rank (after) [1]: 128
Rank (before) [2]: 138
Population [3]: 0.0119%

AVAHEISNKMKIFATI
P3_MyD88 Rank (after) [8]: 270
P3_MyD88 Rank (before) [9]: 1888

VANIGLIGSILWALK
Rank (after) [15]: 942
Rank (before) [16]: 2163

YASYDDNDYYWDPCAAASS
P8_MyD88 Rank (after) [10]: 511
P8_MyD88 Rank (before) [11]: 1815

NQWRKALTSAANLSGW
P3_MyD88 Rank (after) [12]: 703
P3_MyD88 Rank (before) [13]: 3528

WALDDLLQILQARELF
Rank (after) [15]: 988
Rank (before) [16]: 1523

LGYPWIDWEYYVGIED
P8_MyD88 Rank (after) [10]: 519
P8_MyD88 Rank (before) [11]: 3226

KEVEGWRDALPTVASL
P3_MyD88 Rank (after) [8]: 220
P3_MyD88 Rank (before) [9]: 3622

YYDSRWALDELLQILHARELF
P8_MyD88 Rank (after) [8]: 232
P8_MyD88 Rank (before) [9]: 437

LGYQWIAGEYFVGIED
Rank (after) [15]: 1021
Rank (before) [16]: 3320

YLRADDLVLGKTAVC
P8_MyD88 Rank (after) [4]: 643
P8_MyD88 Rank (before) [5]: 2038

SELSVVDDGSVSPLGM
Rank (after) [6]: 472
Rank (before) [7]: 3068

EWIREQLHPALNERLP
P3_MyD88 Rank (after) [12]: 742
P3_MyD88 Rank (before) [13]: 2176

EWIREHLRLALKERLP
Rank (after) [6]: 446
Rank (before) [7]: 2130

SSFREGLCRLLELSKK
Population [14]: 0.0032%

PQAPEWSYERLVSLIL
Rank (after) [15]: 954
Rank (before) [16]: 3417

YELDFSHFWLFDAGGDA
P8_MyD88 Rank (after) [8]: 265
P8_MyD88 Rank (before) [9]: 537

NERGHVWSSKANSLVG
P3_MyD88 Rank (after) [4]: 615
P3_MyD88 Rank (before) [5]: 3454

LQNQWELALTKKTKLV
P3_MyD88 Rank (after) [12]: 733
P3_MyD88 Rank (before) [13]: 2336

AYSPWALDELVKIIEA
P8_MyD88 Rank (after) [8]: 214
P8_MyD88 Rank (before) [9]: 303

EIARQLLSEYLNIAVY
Rank (after) [1]: 131
Rank (before) [2]: 142
Population [3]: 0.0116%
